Test results reported in US6448260B2, “Endothelin receptor antagonists” (SmithKline Beecham Corporation, priority 1991, dated 2002).

| SMILES | melting point |
| --- | --- |
| C=CCc1cc(OC)ccc1[C@H]1c2cc(OCCC)ccc2[C@@H](c2ccc3c(c2)OCO3)[C@@H]1C(=O)O (racemic) [Example 60, (1RS, 2SR, 3SR)-3-[4-Methoxy-2-(prop-2-en-1-yl)phenyl]-1-(3,4-methylenedioxyphenyl)-5-(prop-1-yloxy)indane-2-carboxylic acid] | 126 to 127 °C |
| CCCOc1ccc2c(c1)[C@H](c1ccc(OC)cc1CCC)[C@@H](C(=O)O)[C@@H]2c1ccc2c(c1)OCO2 (racemic) [Example 61, (1RS, 2SR, 3SR)-3-[4-Methoxy-2-(prop-1-yl)phenyl]-1-(3,4-methylenedioxyphenyl)-5-(prop-1-yloxy)indane-2-carboxylic acid] | 155 to 156 °C |
| COc1ccc([C@@H]2c3ccccc3[C@H](c3cc(OC)c(OC)c(OC)c3)[C@H]2C(=O)O)cc1 (racemic) [Example 72, (1RS, 2SR, 3S R)-1-(4-Methoxyphenyl)-3-(3,4,5-trimethoxyphenyl)indane-2-carboxylic acid] | 197 to 198 °C |
| CCOc1ccc([C@@H]2c3ccccc3[C@H](c3ccc4c(c3)OCO4)[C@H]2C(=O)O)cc1 (racemic) [Example 73, (1RS, 2SR, 3SR)-1-(4-Ethoxyphenyl)-3-(3,4-methylenedioxyphenyl)indane-2-carboxylic acid] | 169 to 170 °C |
| COc1ccc([C@H]2c3cc(O)ccc3[C@@H](c3ccc4c(c3)OCO4)[C@@H]2C(=O)O)c(OC)c1 (racemic) [Example 76, (1RS, 2SR, 3RS)-3-(2,4-Dimethoxyphenyl)-5-hydroxy-1-(3,4-methylenedioxyphenyl)indane-2-carboxylic acid] | 110 to 113 °C |
| COc1cc(OC)c([C@H]2c3ccc(O)cc3[C@@H](c3ccc4c(c3)OCO4)[C@@H]2C(=O)O)c(OC)c1 (racemic) [Example 78, (1RS, 2SR, 3RS)-5-Hydroxy-3-(3,4-methylenedioxyphenyl)-1-(2,4,6-trimethoxyphenyl)indane-2-carboxylic acid] | 225 to 226 °C |
| COc1ccc([C@@H]2c3ccc(O)cc3[C@H](c3ccc4c(c3)OCO4)[C@H]2C(=O)O)cc1 (racemic) [Example 81, (1RS, 2SR, 3SR)-5-Hydroxy-3-(3,4-methylenedioxyphenyl)-1-(4-methoxyphenyl)indane-2-carboxylic acid] | 124 to 127 °C |
| COc1ccc([C@@H]2c3cc(O)ccc3[C@H](c3cc4c(cc3OC)OCO4)[C@H]2C(=O)O)cc1 (racemic) [Example 82, (1RS, 2SR, 3RS)-5-Hydroxy-3-(4-methoxyphenyl)-1-(2-methoxy-4,5-methylenedioxyphenyl)indane-2-carboxylic acid] | 236 to 239 °C |
| COc1ccc([C@@H]2c3cc(OC)ccc3[C@@H](c3ccc4c(c3)OC(OC)O4)[C@H]2C(=O)O)cc1 (mixture of isomers) [Example 84, (1RS, 2SR, 3RS)-5-Methoxy-3-(4-methoxyphenyl)-1-(2-methoxy4,5-methylenedioxyphenyl)indane-2-carboxylic acid] | 149 to 150 °C |
| CCCCc1ccc2c(c1)[C@H](c1ccc(OC)cc1OCC(=O)O)[C@@H](C(=O)O)[C@@H]2c1ccc2c(c1)OCO2 (racemic) [Example 89, (1RS, 2SR, 3RS)-5-Butyl-3-(2-carboxymethoxy-4-methoxyphenyl)-1-(3,4-methylenedioxyphenyl) indane-2-carboxylic acid] | 176 to 177 °C |
| CCCOc1cccc2c1[C@@H](c1ccc3c(c1)OCO3)[C@@H](C(=O)O)[C@H]2c1ccc(OC)cc1OCC(=O)O (racemic) [Example 91, (1RS, 2RS, 3RS)-1-(2-Carboxymethoxy-4-methoxyphenyl]-3-(3,4-methylenedioxyphenyl)-4-(prop-1-yloxy)indane-2-carboxylic acid] | 201 to 206 °C |
| COc1ccc([C@@H]2c3cc(OC)ccc3[C@H](c3ccc4c(c3OC)OCO4)[C@H]2C(=O)O)cc1 (racemic) [Example 93, (1RS, 2SR, 3RS)-5-Methoxy-1-(2-methoxy-3,4-methylenedioxyphenyl)-3-(4-methoxyphenyl)indane-2-carboxylic acid] | 148 to 149 °C |
| CCCOc1ccc2c(c1)[C@H](c1ccc(OC(C)C)cc1OCC(=O)O)[C@H](C(=O)O)[C@@H]2c1ccc2c(c1)OCO2 (racemic) [Example 95, (1RS, 2RS, 3RS)-3-(2-Carboxymethoxy-4-isopropyloxyphenyl)-1-(3,4-methylenedioxyphenyl)-5-(prop-1-yloxy)indane-2-carboxylic acid] | 183 to 185 °C |
| CCCOc1ccc2c(c1)[C@H](c1ccc(OCC)cc1OCC(=O)O)[C@@H](C(=O)O)[C@@H]2c1ccc2c(c1)OCO2 (racemic) [Example 96, (1RS, 2SR, 3RS)-3-(2-Carboxymethoxy-4-ethyloxyphenyl)-1-(3,4-methylenedioxyphenyl)-5-(prop-1-yloxy)indane-2-carboxylic acid] | 194 to 196 °C |

The remaining lines, values ahead:

| melting point | SMILES |
| --- | --- |
| 152 to 155 °C | CCCOc1ccc2c(c1)[C@H](c1ccc(OC)cc1Oc1ncccc1C(=O)O)[C@@H](C(=O)O)[C@@H]2c1ccc2c(c1)OCO2 (racemic) [Example 98, (1RS, 2SR, 3RS)-3-[2-[(3-Carboxypyridin-2-yl)oxy]-4-methoxyphenyl]-1-(3,4-methylenedioxyphenyl)-5-(prop-1-yloxy) indane-2-carboxylic acid] |
| 168 to 170 °C | C=CCOc1cc(OC)ccc1[C@H]1c2cc(OCCC)ccc2[C@@H](c2ccc3c(c2)OCO3)[C@@H]1C(=O)O (racemic) [Example 100, (1RS, 2SR, 3RS)-1-(3,4-Methylenedioxyphenyl)-3-[4methoxy-2-(2-propen-1-yloxy)phenyl]-5-(prop-1-yloxy)indane-2-carboxylic acid] |
| 127 to 129 °C | C=CCCOc1ccc2c(c1)[C@@H](c1ccc(OC)cc1)[C@H](C(=O)O)[C@@H]2c1ccc2c(c1)OCO2 (racemic) [Example 106, (1RS, 2SR, 3RS)-5-(3-Buten-1-yloxy)-3-(4-methoxyphenyl)-1-(3,4-methylenedioxyphenyl)indane-2-carboxylic acid] |
| 157 to 158 °C | CCCCOc1ccc2c(c1)[C@H](C1(OC)C=CC=CC1)[C@@H](C(=O)O)[C@@H]2c1ccc2c(c1)OCO2 (mixture of isomers) [Example 107, (1RS, 2SR, 3RS)-5-(But-1-yloxy)-3-(1-methoxyphenyl)-1-(3,4-methylenedioxyphenyl)indane-2-carboxylic acid] |
| 100 to 104 °C | O=C(O)[C@H]1[C@H](c2ccc3c(c2)OCO3)c2ccc(O)cc2[C@@H]1c1ccc(OC(F)(F)F)cc1 (racemic) [Example 108, (1RS, 2RS, 3SR)-5-Hydroxy-1-(3,4-methylenedioxyphenyl)-3-(4-trifluoromethoxyphenyl)indane-2-carboxylic acid] |
| 138 to 140 °C | COc1ccc([C@@H]2c3cc(O)ccc3[C@H](c3c[nH]c4ccccc34)[C@H]2C(=O)O)cc1 (racemic) [Example 109, (1RS, 2SR, 3RS)-5-Hydroxy-1-(3-indolyl)-3-(4-methoxyphenyl)indane-2-carboxylic acid] |
| 191 to 193 °C | O=C(O)[C@H]1[C@H](c2ccc3c(c2)OCO3)c2ccc(OCc3ccccc3)cc2[C@@H]1c1ccc2c(c1)OCO2 (racemic) [Example 116, (1RS, 2SR, 3SR)-5-Benzyloxy-1,3-bis(3,4-methylenedioxyphenyl)indane-2 carboxylic acid] |
| 184 to 186 °C | CCCOc1ccc2c(c1)[C@H](c1ccc(OC)cc1OCC(=O)O)[C@@H](CNS(=O)(=O)C(F)(F)F)[C@@H]2c1ccc2c(c1)OCO2 (racemic) [Example 140, (1RS, 2SR, 3RS)-2-Trifluoromethylsulfonamidomethyl-3-(2-carboxymethoxy-4-methoxyphenyl)-1-(3,4-methylenedioxyphenyl)-5-(prop-1-yloxy)indane] |
